Experimental data: patent US9360486B2, “Allergen fragments” (Biomay AG, priority 2007, dated 2016)
Values joined by “and” are separate entries in the source; they are usually repeats but may differ in a detail not shown here. Identical values can stand only once. “Also recorded” adds a separate entry of the source.

Tests used:
[1] = system: Amb a 1-specific T cell lines (TCL); assay: T cell epitope mapping of Amb a 1.3: proliferation (3H-thymidine uptake) of TCL stimulated with synthetic peptides; assay type: cell-based, human; conditions: for No. positive patients SI > 3 / No. positive patients SI > 5 / % (positive patients SI > 3) / % (positive patients SI > 5): TCL from 48 ragweed pollen-allergic patients, peptide 5 μg/ml; for No. positive patients SI > 3 / No. positive patients SI > 5: 3H-thymidine uptake after 48 hrs; for No. positive patients SI > 3 / % (positive patients SI > 3): stimulation index > 3; for No. positive patients SI > 5 / % (positive patients SI > 5): stimulation index > 5; for T cell activating region recognized by % of patients: classes of prevalence referring to SI>5, 48 TCL
Outline: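 Amb a 1-specific TCL from ragweed-allergic patients, raised with ragweed extract or rAmb a 1.3, stimulated 48 h with 121 overlapping 12-mer peptides plus one C-terminal 13-mer (9-residue overlap) at 5 μg/ml. Proliferation by 3H-thymidine uptake; SI against the mean cpm of the ten least stimulating peptides, epitope when SI ≥3.0.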

[2] = system: IgE of sera from ragweed pollen allergic patients; assay: SDS-PAGE IgE immunoblot with patients' sera; assay type: binding, human
Protocol: Membrane strips were incubated with sera from ragweed pollen allergic patients (lanes 1-29) or with serum from a non-allergic donor (lane C). Bound IgE was detected with ^125I-labeled goat anti-human IgE. Ragweed pollen-sensitized patients were recruited in Austria (lanes 1-13) or in Italy (lanes 14-29).
The proteins were analyzed via SDS-PAGE using 15% acrylamide gels and 0.1% Coomassie staining with a molecular weight standard RPN 756 (GE Healthcare Life Sciences). Sera from allergic patients were tested for positive IgE-reactivity. rAmb a 1 and rArt v 6 were separated on 15% (w/w) polyacrylamide gels and electroblotted onto a PVDF membrane. After blocking the non-specific protein binding sites with Blocking buffer (per L: 7.5 g Na2HPO4, 1 g NaH2PO4, 5 g BSA and 5 mL Tween 20), the membrane was incubated with patients' sera (diluted 1:10 in Blocking buffer) for more than 6 hours at room temperature. The membrane was washed for at least 30 minutes with Blocking buffer before it was incubated with radiolabeled [^125 I]-anti human IgE (RAST, 5 µCi, MedPro) diluted in Blocking buffer (1:40) overnight at room temperature. After a second 30-minute wash, the membrane was placed onto an imaging plate. The screen was exposed for at least 24 hours and developed using a PhosphoImager Bas-1800 II scanner for detection and the instrument's supporting software (Fujifilm).
nAmb a 1 undergoes spontaneously proteolysis during purification and it is cleaved into two chains, alpha and beta chain, respectively.

[3] = system: Amb a 1-specific TCL and TCC; assay: Proliferation of Amb a 1-specific TCL and TCC with allergens and chains; assay type: cell-based, human; conditions: 2 TCL with strong reactivity to Amb a 1 (FIG. 20); modified (version 1) chains of Amb a 1.3
Protocol: Peripheral blood mononuclear cells (PBMC) were isolated from heparinized blood of allergic patients by Ficoll density gradient centrifugation. To generate allergen-specific T cell lines (TCL) and T cell clones (TCC), 1.5×10^6 PBMC were stimulated with optimal doses of ragweed or mugwort extract (4 μg/ml) or rAmb a 1.3 (10 μg/ml) in 24-well flat-bottomed culture plates (Costar, USA). After 5 days human rIL-2 (10 U/ml, Boehringer, Mannheim, Germany) were added and cultures were continued for additional 7 days. Then, T cell blasts were isolated by density centrifugation. The majority of T cell blasts was further expanded with IL-2 and irradiated PBMC. A small number of T cell blasts were used to establish monoclonal T cell cultures by limiting dilution: 0.3 T cells/well were seeded into 96 well round bottom plates (Nunclone) in the presence of 2×10^5 irradiated (60 Gy) PBMC, 0.25% v/v PHA (Gibco, USA) and rIL-2 (4 U/well) in the medium mentioned above. After 14-21 days, growing microcultures were expanded at weekly intervals with irradiated PBMC and rIL-2. The specificity of TCC was assessed in proliferation assays using irradiated allogeneic or HLA-matched PBMC or irradiated EBV-transformed allogeneic B-cells and 5 μg/ml Amb a 1.3. After 48 hours, cellular uptake of tritiated (^3H)-thymidine was performed to measure proliferation in counts per minute (cpm). When the stimulation index (SI; ratio between cpm obtained in cultures containing TCC plus autologous APC plus antigen, and cpm obtained in cultures containing TCC and APC alone) was >10, responses were considered as positive. Allergen-specific TCC were expanded by alternating turns of stimulation with autologous irradiated APC and allergen or with allogeneic feeder cells and rIL-2.
Proliferation and cytokine responses were determined.
When compared with the results of the T cell epitope recognition in Table 3, 45/46 patients (98%) would recognize one or more epitopes in the Amb a 1 alpha-chain. […]

**Q.** “TSGSDPVLTPVQ (Amb a 1 fragment) [Peptide 111]” was tested. Which “reactivity with T cells isolated from allergic individuals” value (“reactivity with T cells isolated” for short) [1] did it give?
**A.** reactivity with T cells

**Q.** What about the “No. positive patients SI > 3” value [1] of the same molecule?
**A.** 16

**Q.** And the “No. positive patients SI > 5” value [1]?
**A.** 11

**Q.** What about the “% (positive patients SI > 3)” value [1] of the same molecule?
**A.** 33.3%

**Q.** What about the “% (positive patients SI > 5)” value [1] of the same molecule?
**A.** 22.9%

**Q.** With “TSNLDDDVANPK (Amb a 1 fragment) [Peptide 23]” as the molecule, how does the “No. positive patients SI > 3” value [1] read?
**A.** 2

**Q.** And the “No. positive patients SI > 5” value [1]?
**A.** 1

**Q.** And the “% (positive patients SI > 3)” value [1]?
**A.** 4.2%

**Q.** What about the “% (positive patients SI > 5)” value [1] of the same molecule?
**A.** 2.1%

**Q.** What does the source list for “TYAIGGSSAPTI (Amb a 1 fragment) [Peptide 91]”?
**A.** T cell reactivity with samples from individuals suffering from ragweed pollen allergy [1]: high T cell reactivity; reactivity with T cells isolated from allergic individuals [1]: reactivity with T cells; No. positive patients SI > 3 [1]: 13; No. positive patients SI > 5 [1]: 11; % (positive patients SI > 3) [1]: 27.1%; % (positive patients SI > 5) [1]: 22.9%; T cell activating region recognized by % of patients [1]: recognized by 22.9%

**Q.** What does the source list for “TYGGKWGDVYTV (Amb a 1 fragment) [Peptide 19]”?
**A.** No. positive patients SI > 3 [1]: 2; No. positive patients SI > 5 [1]: 0; % (positive patients SI > 3) [1]: 4.2%; % (positive patients SI > 5) [1]: 0.0%

**Q.** Which results are given for “VAFNMFTDNVDQ (Amb a 1 fragment) [Peptide 80]”?
**A.** reactivity with T cells isolated from allergic individuals [1]: reactivity with T cells; No. positive patients SI > 3 [1]: 10; No. positive patients SI > 5 [1]: 6; % (positive patients SI > 3) [1]: 20.8%; % (positive patients SI > 5) [1]: 12.5%

**Q.** What does the source list for “VAFNMFTDNVDQRMP (Amb a 1 fragment) [Peptide 80-81]”?
**A.** reactivity with T cells isolated from allergic individuals [1]: reactivity with T cells; T cell activating region recognized by % of patients [1]: recognized by 12.5%

**Q.** Which “reactivity with T cells isolated” value [1] does the source give for “VDQRMPRCRFGF (Amb a 1 fragment) [Peptide 83]” here?
**A.** reactivity with T cells

**Q.** What about the “No. positive patients SI > 3” value [1] of the same molecule?
**A.** 10

**Q.** What about the “No. positive patients SI > 5” value [1] of the same molecule?
**A.** 8

**Q.** What about the “% (positive patients SI > 3)” value [1] of the same molecule?
**A.** 20.8%

**Q.** And the “% (positive patients SI > 5)” value [1]?
**A.** 16.7%

**Q.** And the “T cell activating region recognized by % of patients” value [1]?
**A.** recognized by 16.7%

**Q.** Which results are given for “VKVEIINGGLTL (Amb a 1 fragment) [Peptide 41]”?
**A.** reactivity with T cells isolated from allergic individuals [1]: reactivity with T cells; No. positive patients SI > 3 [1]: 5; No. positive patients SI > 5 [1]: 1; % (positive patients SI > 3) [1]: 10.4%; % (positive patients SI > 5) [1]: 2.1%

**Q.** For “VKVLPGGMIKSN (Amb a 1 fragment) [Peptide 50]”, which “reactivity with T cells isolated” value [1] is on record?
**A.** reactivity with T cells

**Q.** And the “No. positive patients SI > 3” value [1]?
**A.** 5

**Q.** And the “No. positive patients SI > 5” value [1]?
**A.** 4

**Q.** And the “% (positive patients SI > 3)” value [1]?
**A.** 10.4%

**Q.** And the “% (positive patients SI > 5)” value [1]?
**A.** 8.3%

**Q.** What does the source list for “VLTPVQSAGMIP (Amb a 1 fragment) [Peptide 113]”?
**A.** No. positive patients SI > 3 [1]: 4; No. positive patients SI > 5 [1]: 1; % (positive patients SI > 3) [1]: 8.3%; % (positive patients SI > 5) [1]: 2.1%

**Q.** How did the “reactivity with T cells isolated” value [1] turn out when “VNNNYDRWGTYA (Amb a 1 fragment) [Peptide 88]” was run?
**A.** reactivity with T cells

**Q.** What about the “No. positive patients SI > 3” value [1] of the same molecule?
**A.** 10

**Q.** And the “No. positive patients SI > 5” value [1]?
**A.** 4

**Q.** What about the “% (positive patients SI > 3)” value [1] of the same molecule?
**A.** 20.8%

**Q.** And the “% (positive patients SI > 5)” value [1]?
**A.** 8.3%

**Q.** For “VNNNYDRWGTYAIGG (Amb a 1 fragment) [Peptide 88-89]”, which “reactivity with T cells isolated” value [1] is on record?
**A.** reactivity with T cells

**Q.** And the “T cell activating region recognized by % of patients” value [1]?
**A.** recognized by 12.5%

**Q.** What does the source list for “VQDKGMLATVAF (Amb a 1 fragment) [Peptide 77]”?
**A.** reactivity with T cells isolated from allergic individuals [1]: reactivity with T cells; No. positive patients SI > 3 [1]: 7; No. positive patients SI > 5 [1]: 4; % (positive patients SI > 3) [1]: 14.6%; % (positive patients SI > 5) [1]: 8.3%

**Q.** Which results are given for “VTLGSTHVTISN (Amb a 1 fragment) [Peptide 67]”?
**A.** reactivity with T cells isolated from allergic individuals [1]: reactivity with T cells; No. positive patients SI > 3 [1]: 6; No. positive patients SI > 5 [1]: 2; % (positive patients SI > 3) [1]: 12.5%; % (positive patients SI > 5) [1]: 4.2%

**Q.** Which results are given for “VVNSDKTIDGRG (Amb a 1 fragment) [Peptide 37]”?
**A.** reactivity with T cells isolated from allergic individuals [1]: reactivity with T cells; No. positive patients SI > 3 [1]: 14; No. positive patients SI > 5 [1]: 9; % (positive patients SI > 3) [1]: 29.2%; % (positive patients SI > 5) [1]: 18.8%

**Q.** “WENNRQALADCA (Amb a 1 fragment) [Peptide 13]” was tested. Which “No. positive patients SI > 3” value [1] did it give?
**A.** 2

**Q.** What about the “No. positive patients SI > 5” value [1] of the same molecule?
**A.** 0

**Q.** And the “% (positive patients SI > 3)” value [1]?
**A.** 4.2%

**Q.** What about the “% (positive patients SI > 5)” value [1] of the same molecule?
**A.** 0.0%

**Q.** What does the source list for “WRGKADWENNRQ (Amb a 1 fragment) [Peptide 11]”?
**A.** No. positive patients SI > 3 [1]: 4; No. positive patients SI > 5 [1]: 2; % (positive patients SI > 3) [1]: 8.3%; % (positive patients SI > 5) [1]: 4.2%

**Q.** With “WRSDKDLLENGA (Amb a 1 fragment) [Peptide 106]” as the molecule, how does the “No. positive patients SI > 3” value [1] read?
**A.** 3

**Q.** And the “No. positive patients SI > 5” value [1]?
**A.** 1

**Q.** What about the “% (positive patients SI > 3)” value [1] of the same molecule?
**A.** 6.3%

**Q.** What about the “% (positive patients SI > 5)” value [1] of the same molecule?
**A.** 2.1%

**Q.** With “YTVTSNLDDDVA (Amb a 1 fragment) [Peptide 22]” as the molecule, how does the “No. positive patients SI > 3” value [1] read?
**A.** 4

**Q.** What about the “No. positive patients SI > 5” value [1] of the same molecule?
**A.** 4

**Q.** What about the “% (positive patients SI > 3)” value [1] of the same molecule?
**A.** 8.3%

**Q.** And the “% (positive patients SI > 5)” value [1]?
**A.** 8.3%

B1: beta chain: beta chain of naturally processed Amb a 1, N-terminal part, 138 amino acids (protein)
chain: AEGVGEILPSVNETRSLQACEAYNIIDKCWRGKADWENNRQALADCAQGFAKGTYGGKWGDVYTVTSNLDDDVANPKEGTLRFAAAQNRPLWIIFKNDMVINLNQELVVNSDKTIDGRGVKVEIINGGLTLMNVKNIIIHNINIHDVKVLPGGMIKSNDGP
modifications: Amb a 1 beta chain
notes: beta chain of naturally processed Amb a 1, N-terminal part, 138 amino acids
**Q.** B1 was tested. Which “IgE reactivity of the Amb a 1 chains” value [2] did it give?
**A.** strongly recognized; also recorded: contains most of the IgE epitopes of Amb a 1

**Q.** What about the “% of patients whose IgE recognized the chain” value ([2]; chains of nAmb a 1, sera from Italy, Canada and Austria (FIG. 9)) of the same molecule?
**A.** 90%

B2: beta-chain: recombinant modified (version 1) Amb a 1.3 beta chain, aa 26-173, 148 amino acids; called beta chain in Example 4 (protein)
beta: AEGVGEILPSVNETRSLQACEAYNIIDKCWRGKADWENNRQALADCAQGFAKGTYGGKWGDVYTVTSNLDDDVANPKEGTLRFAAAQNRPLWIIFKNDMVINLNQELVVNSDKTIDGRGVKVEIINGGLTLMNVKNIIIHNINIHDVK
modifications: Amb a 1 beta chain
**Q.** How did the “proliferation, % of the response to Amb a 1” value [3] turn out when B2 was run?
**A.** 38% and 19%
